Results on 8 molecules are retold here after PubChem BioAssay (NCI).

Among the test systems are SK-MEL-5 melanoma; EKVX NSCLC; LOX IMVI melanoma; BT-549 breast; TK-10 renal; NCI-H460 lung; SF-268 CNS; SN12C renal.
Common to all, as to assay: inhibition of tumour cell growth, NCI panel, 48 h

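Protocol summary: plate cells (96-well), add compound at 5 concentrations, incubate 48 h, interpolate endpoints linearly. GI50 = concentration required for 50% inhibition of growth. At the TGI there is no net growth.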

For `O=C1c2cccc(NCCN=Cc3ccccc3O)c2C(=O)c2c(NCCN=Cc3ccccc3O)cccc21`, the GI50 in the assay with SK-MEL-5 melanoma is 1.55 µM; in the assay with EKVX NSCLC, 1.87 µM; in the assay on LOX IMVI melanoma it was 0.534 µM; in the assay on BT-549 breast, 2.77 µM; with TK-10 renal it was 1.71 µM; with NCI-H460 lung, 0.399 µM. Also, the GI50 was 0.349 µM in the assay on SF-268 CNS and 0.269 µM in the assay with SN12C renal. Besides, the TGI was determined as 4.03 µM with SK-MEL-5 melanoma; 8.39 µM in the assay on EKVX NSCLC; 2.44 µM in the assay on LOX IMVI melanoma; 9.37 µM in the assay with BT-549 breast; 5.52 µM with TK-10 renal; 1.52 µM with NCI-H460 lung. For the same molecule, the TGI in the assay on SF-268 CNS stood at 1.46 µM; in the assay with SN12C renal it was 2.05 µM.
Take `O=c1ssc(Cl)c1Cl`: the TGI with SK-MEL-5 melanoma, in the assay with EKVX NSCLC, with LOX IMVI melanoma, in the assay with BT-549 breast, in the assay on TK-10 renal and in the assay on NCI-H460 lung was greater than 10 µM each time. The TGI in the assay on SF-268 CNS and in the assay with SN12C renal was greater than 10 µM each time.
For `COc1cc(/C=C/C(=O)N2CCN(C(=O)c3cc(OC)c(OC)c(OC)c3)CC2)ccc1OCCCOc1cc2c(cc1OC)C(=O)N1CCC[C@H]1C=N2`, the GI50 with SK-MEL-5 melanoma was 0.193 µM; in the assay on EKVX NSCLC, 0.794 µM; with LOX IMVI melanoma, 0.215 µM; in the assay on BT-549 breast, 0.154 µM; in the assay with TK-10 renal, 0.45 µM; with NCI-H460 lung, 0.333 µM. Moreover, the GI50 is 0.284 µM with SF-268 CNS and 0.303 µM in the assay on SN12C renal. For the same molecule, the TGI in the assay on SK-MEL-5 melanoma was 0.415 µM; in the assay on EKVX NSCLC, 4.56 µM; in the assay on LOX IMVI melanoma it was 0.726 µM; with BT-549 breast it was 0.434 µM; with TK-10 renal it was 4.37 µM; with NCI-H460 lung, 10.3 µM. For the same molecule, the figures for the TGI in the assay on SF-268 CNS and in the assay on SN12C renal were 4.03 µM and 21.8 µM, respectively.
Turning to `Cn1c(/C=C/[N+](=O)[O-])cc2ccccc21`, the GI50 with SK-MEL-5 melanoma is 3.07 µM; in the assay with EKVX NSCLC, 15.3 µM; with LOX IMVI melanoma, 1.67 µM; in the assay on BT-549 breast, 1.88 µM; with TK-10 renal, 4.04 µM; in the assay with NCI-H460 lung, 3.77 µM. Besides, the GI50 was 11.7 µM in the assay with SF-268 CNS and 13.1 µM in the assay with SN12C renal. In addition, the TGI was 13.3 µM with SK-MEL-5 melanoma; greater than 100 µM with EKVX NSCLC; 3.44 µM with LOX IMVI melanoma; 3.77 µM in the assay with BT-549 breast; 14.9 µM with TK-10 renal; 20.9 µM with NCI-H460 lung. The values for the TGI in the assay on SF-268 CNS and with SN12C renal were 27.4 µM and greater than 100 µM, respectively.
Consider `Cc1cc(C(C)(C)C)cc(CNC2CCCCC2)c1O`, for which the TGI amounted to 30.9 µM with SK-MEL-5 melanoma; 31.4 µM in the assay with EKVX NSCLC; 29.5 µM with LOX IMVI melanoma; 30 µM in the assay on BT-549 breast; 29.7 µM in the assay on TK-10 renal; 28.4 µM in the assay on NCI-H460 lung. Besides, the values for the TGI in the assay with SF-268 CNS and with SN12C renal were 30.3 µM and 29.5 µM, respectively.
On to `COc1cc(C(=O)Nc2cc(OC)c3ccn(C)c3c2)cc2c1C[C@]1(C)CC[C@@H](O)C(C)(C)[C@H]1O2`, for which the GI50 was 0.384 µM with SK-MEL-5 melanoma; 1.87 µM with EKVX NSCLC; 1.01 µM with LOX IMVI melanoma; 0.558 µM with BT-549 breast; 3.74 µM in the assay with TK-10 renal; 0.586 µM in the assay with NCI-H460 lung. Moreover, the GI50 in the assay with SF-268 CNS was 1.99 µM; in the assay with SN12C renal it was 3.93 µM. For the same molecule, the TGI in the assay with SK-MEL-5 melanoma is 1.72 µM; with EKVX NSCLC, greater than 100 µM; with LOX IMVI melanoma, 10.1 µM; in the assay on BT-549 breast, 30.3 µM; with TK-10 renal it was 43.8 µM; in the assay with NCI-H460 lung, greater than 100 µM. In addition, the TGI in the assay with SF-268 CNS and in the assay with SN12C renal was greater than 100 µM throughout.
As to `CC(=O)c1cc(C(=O)c2ccc3c(c2)Sc2ccccc2N3)c2cc(C)ccn12`, the GI50 in the assay on SK-MEL-5 melanoma was 0.122 µM; in the assay with EKVX NSCLC it was 0.0873 µM; in the assay with LOX IMVI melanoma, 0.0906 µM; in the assay with BT-549 breast, 0.251 µM; in the assay on TK-10 renal, greater than 100 µM; in the assay with NCI-H460 lung, 0.0465 µM. The figures for the GI50 with SF-268 CNS and with SN12C renal were 0.0823 µM and 0.479 µM, respectively. Moreover, the TGI was 5.56 µM in the assay on SK-MEL-5 melanoma; greater than 100 µM with EKVX NSCLC; greater than 100 µM in the assay on LOX IMVI melanoma; greater than 100 µM in the assay on BT-549 breast; greater than 100 µM with TK-10 renal; greater than 100 µM in the assay on NCI-H460 lung. The TGI in the assay with SF-268 CNS and in the assay on SN12C renal was greater than 100 µM each time.
For `O=c1oc2ccc(Br)cc2c(=O)n1-c1ccc(I)cc1F`, the GI50 with SK-MEL-5 melanoma was 0.246 µM; in the assay on EKVX NSCLC, 0.594 µM; with LOX IMVI melanoma, 0.393 µM; in the assay on BT-549 breast, 0.341 µM; with TK-10 renal, 0.631 µM; in the assay with NCI-H460 lung it was 0.367 µM. Moreover, the GI50 in the assay with SF-268 CNS was 0.383 µM; in the assay on SN12C renal, 0.33 µM. The TGI is 0.642 µM with SK-MEL-5 melanoma; 5.73 µM with EKVX NSCLC; 2.94 µM with LOX IMVI melanoma; 1.39 µM in the assay on BT-549 breast; 7.39 µM in the assay with TK-10 renal; 5.57 µM in the assay with NCI-H460 lung. For the same molecule, the TGI with SF-268 CNS came out at 4.82 µM; with SN12C renal, 2.79 µM.
